The assay has as its system isolated rat atrial strip. In words: Isolated atrial strip model of metabolic stress induced atrial conduction slowing. Conditions: rat left atrial strip; 40 min glucose-free, non-oxygenated buffer; control decreased by 22%. The procedure: Peptides suitable for administration to cardiac cells can be identified in an in vitro model as described by Haugan et al. (J. Cardiovasc. Electrophysiol., 16, 537-545 (2005)).
Rats (300-400 g) are killed by a sharp blow on the neck. The heart is rapidly excised and transferred to a small dish containing 37° oxygenated modified Tyrodes buffer containing (in mM): NaCl 136, KCl 4, MgCl2 0.8, CaCl2 1.8 HEPES 5, MES 5, Glucose 6, pH 7.3. The left atrium is carefully dissected and a tissue sample of approximately 2×6 mm is taken from the left atrial appendage and placed in a tissue chamber (volume 5 ml), (Steiert Organ Bath, Hugo Sach Electronic, Germany). The chamber is perfused throughout the study with 37° C. oxygenated Tyrodes buffer at a rate of 10 ml/min.
A bipolar stimulation electrode (Teflon coated stainless steel, diameter […]) is placed at one end of the tissue. Stimulation is performed at 1 Hz using rectangular pulses at double threshold (duration of stimulus 0.2 ms) delivered by a stimulator (Hugo Sachs, Type 215) through an isolation unit (Universal Isolated Stimulator Unit type 263, Hugo Sachs, Germany).
Two separate microelectrodes of pure iridium (World Precision Instruments, tip-impedance 3.5-4.0 MΩ) are placed on a line along the long-axis of the preparation for recording of atrial CV. […]

Each structure is given as a SMILES string.

For the molecule `NCC(=O)N1C[C@H](NC(=O)c2ccccc2)C[C@H]1C(=O)O` [Compound 2, (2S4R)1-(2-Amino-acetyl)-4-benzoylamino-pyrrolidine-2-carboxylic acid], the “atrial conduction velocity change compared to baseline” value is given as “did not change compared to baseline”.

The values are drawn from US8431540B2, “Modified lysine-mimetic compounds” (Zealand Pharma A/S, priority 2005, dated 2013).
